In US12220390B2, “Mirdametinib treatment” (SpringWorks Therapeutics, Inc., priority 2022, dated 2025):

Test system: patients ≥2 and <25 years with brain cancer
Assay: Phase I/II trial of single agent mirdametinib in children, adolescents and young adults with brain cancer
Format: in vivo, human
Protocol: A multi-arm phase I/II trial of mirdametinib is to be conducted in patients ≥2 and <25 years with brain cancer. Phase I requires participants have no prior exposure to MEK inhibitors and recurrent/progressive disease with biopsy-proven evidence of MAPK pathway activation. Three escalating dose levels (2 mg/m^2/dose BID, 2.5 mg/m^2/dose BID and 3 mg/m^2/dose BID) are planned using a rolling 6 design. The median age enrolled in the study is 10 years old (3-21).

[1] = patients with brain cancer, 2-3 mg/m^2/dose BID

`O=C(NOC[C@H](O)CO)c1ccc(F)c(F)c1Nc1ccc(I)cc1F` (single isomer, unassigned) [mirdametinib] was tested, and the dose-limiting toxicities (all three dose levels (2, 2.5 and 3 mg/m^2/dose BID), continuous dosing, patients with brain cancer) was “No dose-limiting toxicities”, the tolerability (dosed continuously in patients with brain cancer) was “well-tolerated” and the “MEK related retinopathy or cardiopathy” value [1] was “No MEK related retinopathy or cardiopathy is observed”. The disease progressions [1] was “No disease progressions”.
